Activity calls are given as the source filed them. The calls are words filed in the database; no cut-off is given here.

For one experiment, the system named is Escherichia coli. The experiment can be described thus: Antibacterial activity against Escherichia coli. The experiment is classed as functional, organism-based.
For the next experiment, the system named is Pseudomonas aeruginosa. Briefly: Antibacterial activity against Pseudomonas aeruginosa. The experiment is classed as functional, organism-based.
In another experiment the test system is P388. The experiment can be described thus: Cytotoxicity against mouse P388 cells. It is filed as functional, cell-based.
The subject of a further experiment is Bacillus subtilis. The experiment can be described thus: Antibacterial activity against Bacillus subtilis. It is filed as functional, organism-based.
The next experiment deals with Candida albicans. Briefly: Antifungal activity against Candida albicans. It is filed as functional, organism-based.

In the case of `Cn1c(=N)c2nc[nH]c2n(C)c1=O`, the outcome in the experiment with Escherichia coli, with Pseudomonas aeruginosa, in the experiment with P388, with Bacillus subtilis and with Candida albicans was inactive.
With `NCCc1ccc(O)c(Br)c1`, the result in the experiment with Escherichia coli, in the experiment with Pseudomonas aeruginosa, in the experiment with Bacillus subtilis and with Candida albicans was inactive. Further, half-maximal inhibition in the experiment with P388 (IC50) required 46 µM.

These data come from ChEMBL document CHEMBL1150916, “Isolation of 2-(3'-bromo-4'-hydroxyphenol)ethanamine from the New Zealand ascidian Cnemidocarpa bicornuta” (J Nat Prod, 1998).
